System: 292921-168-R-J2-PDC complex spheroid viability
Assay: Anticancer human tumor 292921-168-R-J2-PDC patient-derived pancreatic carcinoma cell line growth inhibition
Settings: for IC50: curve of first compound; for viability, T/C: stronger effect = lower value
Outline: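 Drug combinations with the LSD1 inhibitor iadademstat tested on tumor cells co-cultured as spheroids with endothelial cells and mesenchymal stem cells. Concentrations descended in half-log increments from clinical Cmax or 10 microM.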

[1] = second compound 0.1 µM, first compound 0.0316 µM
[2] = second compound 0.1 µM, first compound 0.1 µM
[3] = second compound 0.1 µM, first compound 0.316 µM
[4] = second compound 0.1 µM, first compound 1 µM
[5] = second compound 0.1 µM, first compound 3.16 µM
[6] = second compound 0.1 µM, first compound 10 µM
[7] = second compound 0.316 µM, first compound 0.0316 µM
[8] = second compound 0.316 µM, first compound 0.1 µM
[9] = second compound 0.316 µM, first compound 0.316 µM
[10] = second compound 0.316 µM, first compound 1 µM
[11] = second compound 0.316 µM, first compound 3.16 µM
[12] = second compound 0.316 µM, first compound 10 µM
[13] = second compound 1 µM, first compound 0.0316 µM
[14] = second compound 1 µM, first compound 0.1 µM
[15] = second compound 1 µM, first compound 0.316 µM
[16] = second compound 1 µM, first compound 1 µM
[17] = second compound 1 µM, first compound 3.16 µM
[18] = second compound 1 µM, first compound 10 µM
[19] = second compound 3.16 µM, first compound 0.0316 µM
[20] = second compound 3.16 µM, first compound 0.1 µM
[21] = second compound 3.16 µM, first compound 0.316 µM
[22] = second compound 3.16 µM, first compound 1 µM
[23] = second compound 3.16 µM, first compound 3.16 µM
[24] = second compound 3.16 µM, first compound 10 µM
[25] = second compound 10 µM, first compound 0.0316 µM
[26] = second compound 10 µM, first compound 0.1 µM
[27] = second compound 10 µM, first compound 0.316 µM
[28] = second compound 10 µM, first compound 1 µM
[29] = second compound 10 µM, first compound 3.16 µM
[30] = second compound 10 µM, first compound 10 µM
[31] = second compound 0.1 µM, first compound 0.00949 µM
[32] = second compound 0.1 µM, first compound 0.03 µM
[33] = second compound 0.1 µM, first compound 0.0949 µM
[34] = second compound 0.1 µM, first compound 0.3 µM
[35] = second compound 0.316 µM, first compound 0.00949 µM
[36] = second compound 0.316 µM, first compound 0.03 µM
[37] = second compound 0.316 µM, first compound 0.0949 µM
[38] = second compound 0.316 µM, first compound 0.3 µM
[39] = second compound 1 µM, first compound 0.00949 µM
[40] = second compound 1 µM, first compound 0.03 µM
[41] = second compound 1 µM, first compound 0.0949 µM
[42] = second compound 1 µM, first compound 0.3 µM
[43] = second compound 3.16 µM, first compound 0.00949 µM
[44] = second compound 3.16 µM, first compound 0.03 µM
[45] = second compound 3.16 µM, first compound 0.0949 µM
[46] = second compound 3.16 µM, first compound 0.3 µM
[47] = second compound 10 µM, first compound 0.00949 µM
[48] = second compound 10 µM, first compound 0.03 µM
[49] = second compound 10 µM, first compound 0.0949 µM
[50] = second compound 10 µM, first compound 0.3 µM
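Further: seven day compound exposure before luminescent viability read.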
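Wherever viability, T/C is given: 100% = DMSO vehicle control wells.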

CC1(C)CCC(CN2CCN(c3ccc(C(=O)NS(=O)(=O)c4ccc(NCC5CCOCC5)c([N+](=O)[O-])c4)c(Oc4cnc5[nH]ccc5c4)c3)CC2)=C(c2ccc(Cl)cc2)C1 + NC1CCC(NC2CC2c2ccccc2)CC1
IC50 (second compound 0.1 µM): 1640 nM
IC50 (second compound 0.316 µM): 1310 nM
IC50 (second compound 1 µM): 1330 nM
IC50 (second compound 3.16 µM): 1260 nM
IC50 (second compound 10 µM): 1110 nM
viability, T/C [1]: 63.5%
viability, T/C [2]: 71.4%
viability, T/C [3]: 73.3%
viability, T/C [4]: 72.4%
viability, T/C [5]: 23.2%
viability, T/C [6]: 0.18%
viability, T/C [7]: 66.3%
viability, T/C [8]: 60.1%
viability, T/C [9]: 68.2%
viability, T/C [10]: 60.1%
viability, T/C [11]: 15.8%
viability, T/C [12]: 0.25%
viability, T/C [13]: 53%
viability, T/C [14]: 58.8%
viability, T/C [15]: 65.4%
viability, T/C [16]: 67.6%
viability, T/C [17]: 16.2%
viability, T/C [18]: 0.26%
viability, T/C [19]: 58.1%
viability, T/C [20]: 60.9%
viability, T/C [21]: 62.3%
viability, T/C [22]: 59.4%
viability, T/C [23]: 12.2%
viability, T/C [24]: 0.14%
viability, T/C [25]: 64.2%
viability, T/C [26]: 64%
viability, T/C [27]: 66.4%
viability, T/C [28]: 53.4%
viability, T/C [29]: 12.7%
viability, T/C [30]: 0.23%

CC1COCCN1c1cc(C2(S(C)(=N)=O)CC2)nc(-c2ccnc3[nH]ccc23)n1 (stereo not given) + NC1CCC(NC2CC2c2ccccc2)CC1
IC50 (second compound 0.1 µM): 351 nM
IC50 (second compound 0.316 µM): 212 nM
IC50 (second compound 1 µM): 200 nM
IC50 (second compound 3.16 µM): 163 nM
IC50 (second compound 10 µM): 128 nM
viability, T/C [1]: 65.1%
viability, T/C [2]: 64.5%
viability, T/C [3]: 52.3%
viability, T/C [4]: 24.9%
viability, T/C [5]: 12.7%
viability, T/C [6]: 11.4%
viability, T/C [7]: 62.2%
viability, T/C [8]: 56.7%
viability, T/C [9]: 46.5%
viability, T/C [10]: 24.5%
viability, T/C [11]: 14.3%
viability, T/C [12]: 12.1%
viability, T/C [13]: 54.1%
viability, T/C [14]: 56.1%
viability, T/C [15]: 46.6%
viability, T/C [16]: 23.7%
viability, T/C [17]: 12.7%
viability, T/C [18]: 11.8%
viability, T/C [19]: 61%
viability, T/C [20]: 51.6%
viability, T/C [21]: 44.8%
viability, T/C [22]: 22.6%
viability, T/C [23]: 13.3%
viability, T/C [24]: 12.7%
viability, T/C [25]: 56.3%
viability, T/C [26]: 52%
viability, T/C [27]: 41.2%
viability, T/C [28]: 24.2%
viability, T/C [29]: 14%
viability, T/C [30]: 12.1%

CCN(c1cc(-c2ccc(CN3CCOCC3)cc2)cc(C(=O)NCc2c(C)cc(C)[nH]c2=O)c1C)C1CCOCC1 + NC1CCC(NC2CC2c2ccccc2)CC1
IC50 (second compound 0.1 µM): 953 nM
IC50 (second compound 0.316 µM): 694 nM
IC50 (second compound 1 µM): 647 nM
IC50 (second compound 3.16 µM): 649 nM
IC50 (second compound 10 µM): 453 nM
viability, T/C [31]: 67.3%
viability, T/C [32]: 69.7%
viability, T/C [33]: 76.6%
viability, T/C [34]: 63.5%
viability, T/C (second compound 0.1 µM, first compound 0.949 µM): 50.6%
viability, T/C (second compound 0.1 µM, first compound 3 µM): 21.3%
viability, T/C [35]: 77.2%
viability, T/C [36]: 71.7%
viability, T/C [37]: 66.6%
viability, T/C [38]: 66.8%
viability, T/C (second compound 0.316 µM, first compound 0.949 µM): 44%
viability, T/C (second compound 0.316 µM, first compound 3 µM): 18.4%
viability, T/C [39]: 60%
viability, T/C [40]: 61.8%
viability, T/C [41]: 67.6%
viability, T/C [42]: 61%
viability, T/C (second compound 1 µM, first compound 0.949 µM): 44.3%
viability, T/C (second compound 1 µM, first compound 3 µM): 17.7%
viability, T/C [43]: 59.8%
viability, T/C [44]: 68.4%
viability, T/C [45]: 68.1%
viability, T/C [46]: 57.6%
viability, T/C (second compound 3.16 µM, first compound 0.949 µM): 45.6%
viability, T/C (second compound 3.16 µM, first compound 3 µM): 18.5%
viability, T/C [47]: 62.8%
viability, T/C [48]: 64.3%
viability, T/C [49]: 63.4%
viability, T/C [50]: 56.8%
viability, T/C (second compound 10 µM, first compound 0.949 µM): 37.4%
viability, T/C (second compound 10 µM, first compound 3 µM): 15.8%

Cn1ncnc1C1c2n[nH]c(=O)c3cc(F)cc(c23)NC1c1ccc(F)cc1 (stereo not given) + NC1CCC(NC2CC2c2ccccc2)CC1
IC50 (second compound 0.1 µM): > 100 nM
IC50 (second compound 0.316 µM): 81.4 nM
IC50 (second compound 1 µM): > 100 nM
IC50 (second compound 3.16 µM): 28.4 nM
IC50 (second compound 10 µM): > 100 nM
viability, T/C (second compound 0.1 µM, first compound 0.000316 µM): 68.7%
viability, T/C (second compound 0.1 µM, first compound 0.001 µM): 69%
viability, T/C (second compound 0.1 µM, first compound 0.00316 µM): 64.6%
viability, T/C (second compound 0.1 µM, first compound 0.01 µM): 66.7%
viability, T/C [1]: 66.6%
viability, T/C [2]: 53.4%
viability, T/C (second compound 0.316 µM, first compound 0.000316 µM): 66.6%
viability, T/C (second compound 0.316 µM, first compound 0.001 µM): 60.4%
viability, T/C (second compound 0.316 µM, first compound 0.00316 µM): 62.1%
viability, T/C (second compound 0.316 µM, first compound 0.01 µM): 52.8%
viability, T/C [7]: 54.2%
viability, T/C [8]: 49.1%
viability, T/C (second compound 1 µM, first compound 0.000316 µM): 67.6%
viability, T/C (second compound 1 µM, first compound 0.001 µM): 60.3%
viability, T/C (second compound 1 µM, first compound 0.00316 µM): 54.9%
viability, T/C (second compound 1 µM, first compound 0.01 µM): 52.9%
viability, T/C [13]: 47.1%
viability, T/C [14]: 55.7%
viability, T/C (second compound 3.16 µM, first compound 0.000316 µM): 57.7%
viability, T/C (second compound 3.16 µM, first compound 0.001 µM): 57.1%
viability, T/C (second compound 3.16 µM, first compound 0.00316 µM): 58.6%
viability, T/C (second compound 3.16 µM, first compound 0.01 µM): 53%
viability, T/C [19]: 46.8%
viability, T/C [20]: 46.6%
viability, T/C (second compound 10 µM, first compound 0.000316 µM): 59%
viability, T/C (second compound 10 µM, first compound 0.001 µM): 60.4%
viability, T/C (second compound 10 µM, first compound 0.00316 µM): 60.8%
viability, T/C (second compound 10 µM, first compound 0.01 µM): 57%
viability, T/C [25]: 50.4%
viability, T/C [26]: 54.3%

Nc1ncn(C2CC(O)C(CO)S2)c(=O)n1 (stereo not given) + NC1CCC(NC2CC2c2ccccc2)CC1
IC50 (second compound 0.1 µM): 43.8 nM
IC50 (second compound 0.316 µM): 40 nM
IC50 (second compound 1 µM): 37.2 nM
IC50 (second compound 3.16 µM): 34.6 nM
IC50 (second compound 10 µM): 30.7 nM
viability, T/C (second compound 0.1 µM, first compound 0.000949 µM): 68.9%
viability, T/C (second compound 0.1 µM, first compound 0.003 µM): 62%
viability, T/C [31]: 63.2%
viability, T/C [32]: 57.1%
viability, T/C [33]: 36.8%
viability, T/C [34]: 10.9%
viability, T/C (second compound 0.316 µM, first compound 0.000949 µM): 66.8%
viability, T/C (second compound 0.316 µM, first compound 0.003 µM): 64.3%
viability, T/C [35]: 59.1%
viability, T/C [36]: 57.2%
viability, T/C [37]: 33.2%
viability, T/C [38]: 11.2%
viability, T/C (second compound 1 µM, first compound 0.000949 µM): 52.2%
viability, T/C (second compound 1 µM, first compound 0.003 µM): 62.7%
viability, T/C [39]: 55.2%
viability, T/C [40]: 53.9%
viability, T/C [41]: 33.6%
viability, T/C [42]: 10.3%
viability, T/C (second compound 3.16 µM, first compound 0.000949 µM): 55.1%
viability, T/C (second compound 3.16 µM, first compound 0.003 µM): 61.9%
viability, T/C [43]: 58.6%
viability, T/C [44]: 52.9%
viability, T/C [45]: 28%
viability, T/C [46]: 11%
viability, T/C (second compound 10 µM, first compound 0.000949 µM): 56.3%
viability, T/C (second compound 10 µM, first compound 0.003 µM): 61.2%
viability, T/C [47]: 59.6%
viability, T/C [48]: 49.6%
viability, T/C [49]: 28.2%
viability, T/C [50]: 11.5%

Reference: PubChem BioAssay AID1918934 (Molecular Pharmacology Branch, DTP, NCI, 2023)
